In US9902702B2, “Spirocycloheptanes as inhibitors of rock” (BRISTOL-MYERS SQUIBB COMPANY, priority 2014, dated 2018) one finds IC50 data, which are given here for 28 molecules.

Structures are written as SMILES.

Sequence of ROCK2 (O75116 whole entry, species assumed): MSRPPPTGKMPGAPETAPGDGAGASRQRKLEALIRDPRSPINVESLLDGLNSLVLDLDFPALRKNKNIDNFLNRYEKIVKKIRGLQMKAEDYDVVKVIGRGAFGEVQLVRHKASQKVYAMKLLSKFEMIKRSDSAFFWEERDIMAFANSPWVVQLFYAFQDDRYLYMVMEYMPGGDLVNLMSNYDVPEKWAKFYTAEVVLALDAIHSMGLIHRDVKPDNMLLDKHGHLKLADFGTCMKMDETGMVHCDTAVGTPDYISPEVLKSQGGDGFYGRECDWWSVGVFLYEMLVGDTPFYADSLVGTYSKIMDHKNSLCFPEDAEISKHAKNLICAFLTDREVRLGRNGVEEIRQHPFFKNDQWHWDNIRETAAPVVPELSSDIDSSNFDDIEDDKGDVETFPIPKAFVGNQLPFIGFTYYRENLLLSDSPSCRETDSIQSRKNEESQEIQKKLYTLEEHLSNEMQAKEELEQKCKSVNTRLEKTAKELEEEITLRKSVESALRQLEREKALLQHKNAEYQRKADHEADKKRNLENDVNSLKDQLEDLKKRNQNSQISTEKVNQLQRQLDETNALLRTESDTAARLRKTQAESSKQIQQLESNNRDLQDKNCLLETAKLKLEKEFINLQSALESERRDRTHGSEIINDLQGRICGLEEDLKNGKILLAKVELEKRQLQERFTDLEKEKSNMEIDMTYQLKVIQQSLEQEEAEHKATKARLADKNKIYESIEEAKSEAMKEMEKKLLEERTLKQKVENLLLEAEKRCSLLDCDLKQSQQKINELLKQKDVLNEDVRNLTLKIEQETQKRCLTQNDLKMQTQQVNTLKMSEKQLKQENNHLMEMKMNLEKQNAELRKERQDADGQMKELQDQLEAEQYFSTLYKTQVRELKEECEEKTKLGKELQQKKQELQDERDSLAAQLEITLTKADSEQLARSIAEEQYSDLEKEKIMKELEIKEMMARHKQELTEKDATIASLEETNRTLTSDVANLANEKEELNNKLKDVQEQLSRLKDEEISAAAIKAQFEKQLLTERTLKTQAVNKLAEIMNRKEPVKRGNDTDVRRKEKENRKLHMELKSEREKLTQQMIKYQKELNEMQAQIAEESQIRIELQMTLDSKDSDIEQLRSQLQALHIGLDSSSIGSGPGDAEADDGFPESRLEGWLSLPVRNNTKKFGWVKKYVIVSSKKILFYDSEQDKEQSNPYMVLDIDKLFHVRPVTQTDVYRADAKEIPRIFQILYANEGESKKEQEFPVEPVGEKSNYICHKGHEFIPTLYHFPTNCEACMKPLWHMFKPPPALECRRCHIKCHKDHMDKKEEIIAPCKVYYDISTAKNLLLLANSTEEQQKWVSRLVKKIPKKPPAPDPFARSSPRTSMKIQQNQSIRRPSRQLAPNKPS

The assay addresses ROCK2 (Homo sapiens, UniProt O75116). In words: ROCK assay: phosphorylation of FITC peptide substrate, LABCHIP 3000 mobility shift. Particulars: 5 μM ATP, 1.5 μM peptide substrate; read-out: ROCK2 Activity (ROCK IC50 range). The class given is biochemical. The method in brief: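 Rho kinase variant phosphorylates 1.5 μM FITC-AHA-AKRRRLSSLRA-OH with 5 μM ATP in 20 mM HEPES pH 7.5, 20 mM MgCl2, 0.015% Brij-35, 4 mM DTT, DMSO <2%. EDTA stops the reaction, and phospho and non-phospho peptides are resolved by LabChip 3000 mobility shift. IC50 from dose-response curve fit.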
Consider `O=C(NC1CC2(C1)CC(c1n[nH]c(=O)c3ccccc13)C2)c1ccnn1CC1CC1` [Example 103, 1-(cyclopropylmethyl)-N-((aR)-6-(4-oxo-3,4-dihydrophthalazin-1-yl)spiro[3.3]heptan-2-yl)-1H-pyrazole-5-carboxamide], for which the IC50 was 15.1 to 100 nM.

Turning to `O=C(NC1CC2(C1)CC(c1n[nH]c(=O)c3ccccc13)C2)c1ccnn1C1CCOCC1` [Example 104, N-((aR)-6-(4-oxo-3,4-dihydrophthalazin-1-yl)spiro[3.3]heptan-2-yl)-1-(tetrahydro-2H-pyran-4-yl)-1H-pyrazole-5-carboxamide], the IC50 lay in the range of 100 to 2100 nM.

As to `O=C(NC1CC2(C1)CC(c1n[nH]c(=O)c3ccccc13)C2)c1cnn2cc(OC3CCOC3)ccc12` [Example 105, N-((aR)-6-(4-oxo-3,4-dihydrophthalazin-1-yl)spiro[3.3]heptan-2-yl)-6-((tetrahydrofuran-3-yl)oxy)pyrazolo[1,5-a]pyridine-3-carboxamide], the IC50 is 0.2 to 2 nM.

In the case of `CC(C)(C)OC(=O)NCCn1cc(C(=O)NC2CC3(C2)CC(c2n[nH]c(=O)c4ccccc24)C3)cn1` [Example 106, tert-butyl (2-(4-(((aR)-6-(4-oxo-3,4-dihydrophthalazin-1-yl)spiro[3.3]heptan-2-yl)carbamoyl)-1H-pyrazol-1-yl)ethyl)carbamate], the 50% inhibitory concentration (IC50) was in the range of 100 to 2100 nM.

Consider `O=C(NC1CC2(C1)CC(c1n[nH]c(=O)c3ccccc13)C2)c1cnn2cc(OCC(O)C(F)(F)F)ccc12` [Example 107, N-((aR)-6-(4-oxo-3,4-dihydrophthalazin-1-yl)spiro[3.3]heptan-2-yl)-6-(3,3,3-trifluoro-2-hydroxypropoxy)pyrazolo[1,5-a]pyridine-3-carboxamide], for which the IC50 fell in the range of 0.2 to 2 nM.

For the molecule `COc1cccc(-n2cc(C(=O)NC3CC4(C3)CC(c3n[nH]c(=O)c5ccccc35)C4)cn2)c1` [Example 108, 1-(3-methoxyphenyl)-N-((aR)-6-(4-oxo-3,4-dihydrophthalazin-1-yl)spiro[3.3]heptan-2-yl)-1H-pyrazole-4-carboxamide], the IC50 fell in the range of 2.01 to 5 nM.

Regarding `O=C(NC1CC2(C1)CC(c1n[nH]c(=O)c3ccccc13)C2)c1cnn(Cc2ccccc2)c1` [Example 109, 1-benzyl-N-((aR)-6-(4-oxo-3,4-dihydrophthalazin-1-yl)spiro[3.3]heptan-2-yl)-1H-pyrazole-4-carboxamide], the IC50 fell in the range of 2.01 to 5 nM.

As to `CC(C)(O)COc1ccc2c(C(=O)NC3CC4(C3)CC(c3n[nH]c(=O)c5ccccc35)C4)cnn2c1C(N)=O` [Example 110, 6-(2-hydroxy-2-methylpropoxy)-N3-((aR)-6-(4-oxo-3,4-dihydrophthalazin-1-yl)spiro[3.3]heptan-2-yl)pyrazolo[1,5-a]pyridine-3,7-dicarboxamide], the IC50 is 15.1 to 100 nM.

As to `N#Cc1c(O)ccc2c(C(=O)NC3CC4(C3)CC(c3n[nH]c(=O)c5ccccc35)C4)cnn12` [Example 111, 7-cyano-6-hydroxy-N-((aR)-6-(4-oxo-3,4-dihydrophthalazin-1-yl)spiro[3.3]heptan-2-yl)pyrazolo[1,5-a]pyridine-3-carboxamide], the IC50 lay within 15.1 to 100 nM.

For `Cc1c(OCC(C)(C)O)ccc2c(C(=O)NC3CC4(C3)CC(c3n[nH]c(=O)c5ccccc35)C4)cnn12` [Example 112, 6-(2-hydroxy-2-methylpropoxy)-7-methyl-N-((aR)-6-(4-oxo-3,4-dihydrophthalazin-1-yl)spiro[3.3]heptan-2-yl)pyrazolo[1,5-a]pyridine-3-carboxamide], the IC50 lay in the range of 2.01 to 5 nM.

With `COCc1c(OCC(C)(C)O)ccc2c(C(=O)NC3CC4(C3)CC(c3n[nH]c(=O)c5ccccc35)C4)cnn12` [Example 113, 6-(2-hydroxy-2-methylpropoxy)-7-(methoxymethyl)-N-((aR)-6-(4-oxo-3,4-dihydrophthalazin-1-yl)spiro[3.3]heptan-2-yl)pyrazolo[1,5-a]pyridine-3-carboxamide], the IC50 lay within 2.01 to 5 nM.

Take `Cc1c(C(=O)NC2CC3(C2)CC(c2n[nH]c(=O)c4ccccc24)C3)nnn1-c1ccccc1` [Example 114, 5-methyl-N-((aR)-6-(4-oxo-3,4-dihydrophthalazin-1-yl)spiro[3.3]heptan-2-yl)-1-phenyl-1H-1,2,3-triazole-4-carboxamide]: the IC50 was in the range of 2.01 to 5 nM.

On to `COc1ccc(-n2nnc(C(=O)NC3CC4(C3)CC(c3n[nH]c(=O)c5ccccc35)C4)c2C)cc1` [Example 115, 1-(4-methoxyphenyl)-5-methyl-N-((aR)-6-(4-oxo-3,4-dihydrophthalazin-1-yl)spiro[3.3]heptan-2-yl)-1H-1,2,3-triazole-4-carboxamide], for which the IC50 is 2.01 to 5 nM.

Regarding `COc1cccc(-n2cc(C(=O)NC3CC4(C3)CC(c3n[nH]c(=O)c5ccccc35)C4)nn2)c1` [Example 116, 1-(3-methoxyphenyl)-N-((aR)-6-(4-oxo-3,4-dihydrophthalazin-1-yl)spiro[3.3]heptan-2-yl)-1H-1,2,3-triazole-4-carboxamide], the IC50 fell in the range of 2.01 to 5 nM.

For `COc1ccccc1-n1nnc(C(=O)NC2CC3(C2)CC(c2n[nH]c(=O)c4ccccc24)C3)c1C` [Example 117, 1-(2-methoxyphenyl)-5-methyl-N-((aR)-6-(4-oxo-3,4-dihydrophthalazin-1-yl)spiro[3.3]heptan-2-yl)-1H-1,2,3-triazole-4-carboxamide], the IC50 was 15.1 to 100 nM.

As for `O=C(NC1CC2(C1)CC(c1n[nH]c(=O)c3ccccc13)C2)c1noc(-c2ccc(F)cc2)n1` [Example 118, 5-(4-fluorophenyl)-N-((aR)-6-(4-oxo-3,4-dihydrophthalazin-1-yl)spiro[3.3]heptan-2-yl)-1,2,4-oxadiazole-3-carboxamide], the IC50 fell in the range of 15.1 to 100 nM.

With `O=C(N[C@H]1CC2(C1)C[C@H](c1n[nH]c(=O)c3ccccc31)C2)c1cnn2cc(OC[C@@H](O)C(F)(F)F)ccc12` (stereo partly drawn) [Example 119, N-((aR)-6-(4-oxo-3,4-dihydrophthalazin-1-yl)spiro[3.3]heptan-2-yl)-6-(3,3,3-trifluoro-2-hydroxypropoxy)pyrazolo[1,5-a]pyridine-3-carboxamide], the IC50 was 0.2 to 2 nM.

In the case of `O=C(N[C@H]1CC2(C1)C[C@H](c1n[nH]c(=O)c3ccccc31)C2)c1cnn2cc(OC[C@@H](O)C(F)(F)F)ccc12` (stereo partly drawn) [Example 120, N-((aR)-6-(4-oxo-3,4-dihydrophthalazin-1-yl)spiro[3.3]heptan-2-yl)-6-(3,3,3-trifluoro-2-hydroxypropoxy)pyrazolo[1,5-a]pyridine-3-carboxamide], the IC50 is 0.2 to 2 nM.

On to `O=C(N[C@H]1CC2(C1)C[C@H](c1n[nH]c(=O)c3ccccc31)C2)c1cnn2cc(O[C@@H]3CCOC3)ccc12` (stereo partly drawn) [Example 121, N-((aR)-6-(4-oxo-3,4-dihydrophthalazin-1-yl)spiro[3.3]heptan-2-yl)-6-((tetrahydrofuran-3-yl)oxy)pyrazolo[1,5-a]pyridine-3-carboxamide], for which the IC50 lay in the range of 0.2 to 2 nM.

For the molecule `O=C(N[C@H]1CC2(C1)C[C@H](c1n[nH]c(=O)c3ccccc31)C2)c1cnn2cc(O[C@@H]3CCOC3)ccc12` (stereo partly drawn) [Example 122, N-((aR)-6-(4-oxo-3,4-dihydrophthalazin-1-yl)spiro[3.3]heptan-2-yl)-6-((tetrahydrofuran-3-yl)oxy)pyrazolo[1,5-a]pyridine-3-carboxamide], the IC50 lay within 0.2 to 2 nM.

For the molecule `Cc1cccc2c(C(=O)N[C@H]3CC4(C3)C[C@H](c3n[nH]c(=O)c5ccccc53)C4)cnn12` (stereo partly drawn) [Example 123, 7-methyl-N-((aR)-6-(4-oxo-3,4-dihydrophthalazin-1-yl)spiro[3.3]heptan-2-yl)pyrazolo[1,5-a]pyridine-3-carboxamide], the IC50 is 2.01 to 5 nM.

Take `COc1c(C(=O)NC2CC3(C2)CC(c2n[nH]c(=O)c4ccccc24)C3)nc2ccccn12` (stereo not drawn) [Example 124, 3-methoxy-N-((αR)-6-(4-oxo-3,4-dihydrophthalazin-1-yl)spiro[3.3]heptan-2-yl)imidazo[1,2-α]pyridine-2-carboxamide]: the IC50 is 15.1 to 100 nM.

`O=C(NC1CC2(C1)CC(c1n[nH]c(=O)c3ccccc13)C2)c1cnn2c(C3CC3)c(OCc3ccccc3)ccc12` (stereo not drawn) [Example 125, 6-(benzyloxy)-7-cyclopropyl-N-((αR)-6-(4-oxo-3,4-dihydrophthalazin-1-yl)spiro[3.3]heptan-2-yl)pyrazolo[1,5-α]pyridin-3-carboxamide]: the half-inhibitory concentration (IC50) fell in the range of 2.01 to 5 nM.

Turning to `Cc1c(OCc2ccccc2)ccc2c(C(=O)NC3CC4(C3)CC(c3n[nH]c(=O)c5ccccc35)C4)cnn12` (stereo not drawn) [Example 126, 6-(benzyloxy)-7-methyl-N-((αR)-6-(4-oxo-3,4-dihydrophthalazin-1-yl)spiro[3.3]heptan-2-yl)pyrazolo[1,5-α]pyridine-3-carboxamide], the IC50 is 0.2 to 2 nM.

Take `N#Cc1c(OCc2ccccc2)ccc2c(C(=O)NC3CC4(C3)CC(c3n[nH]c(=O)c5ccccc35)C4)cnn12` (stereo not drawn) [Example 127, 6-(benzyloxy)-7-cyano-N-((αR)-6-(4-oxo-3,4-dihydrophthalazin-1-yl)spiro[3.3]heptan-2-yl)pyrazolo[1,5-α]pyridine-3-carboxamide]: the IC50 was in the range of 0.2 to 2 nM.

On to `O=C(NC1CC2(C1)CC(c1n[nH]c(=O)c3ccccc13)C2)c1cnn2c(C3CC3)c(O)ccc12` (stereo not drawn) [Example 128, 7-cyclopropyl-6-hydroxy-N-((αR)-6-(4-oxo-3,4-dihydrophthalazin-1-yl)spiro[3.3]heptan-2-yl)pyrazolo[1,5-α]pyridine-3-carboxamide], for which the IC50 was 2.01 to 5 nM.

Regarding `COc1ccccc1-n1cc(C(=O)NC2CC3(C2)CC(c2n[nH]c(=O)c4ccccc24)C3)nn1` (stereo not shown) [Example 129, 1-(2-methoxyphenyl)-N-((αR)-6-(4-oxo-3,4-dihydrophthalazin-1-yl)spiro[3.3]heptan-2-yl)-1H-1,2,3-triazole-4-carboxamide], the IC50 is 5.1 to 15 nM.

As to `CN(C)Cc1c(OCc2ccccc2)ccc2c(C(=O)NC3CC4(C3)CC(c3n[nH]c(=O)c5ccccc35)C4)cnn12` (stereo not drawn) [Example 130, 6-(benzyloxy)-7-((dimethylamino)methyl)-N-((αR)-6-(4-oxo-3,4-dihydrophthalazin-1-yl)spiro[3.3]heptan-2-yl)pyrazolo[1,5-α]pyridine-3-carboxamide], the IC50 lay within 5.1 to 15 nM.
